According to PubChem BioAssay AID1918958 (Molecular Pharmacology Branch, DTP, NCI, 2023):

System: NCI-H196 complex spheroid viability
Experiment: Anticancer human tumor NCI-H196 cell line growth inhibition [LSD1];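 further: spheroids exposed to agents for 7 days before readout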;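 on viability, T/C: 100% = DMSO vehicle control viability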
Conditions: for IC50: curve of first compound; for viability, T/C: stronger effect = lower value
Method in brief: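 Drug combinations with the LSD1 inhibitor iadademstat tested on tumor cells co-cultured as spheroids with endothelial cells and mesenchymal stem cells. Concentrations descended in half-log increments from clinical Cmax or 10 microM.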

[1] = second compound 0.1 µM, first compound 0.00949 µM
[2] = second compound 0.1 µM, first compound 0.03 µM
[3] = second compound 0.1 µM, first compound 0.0949 µM
[4] = second compound 0.1 µM, first compound 0.3 µM
[5] = second compound 0.1 µM, first compound 0.949 µM
[6] = second compound 0.1 µM, first compound 3 µM
[7] = second compound 0.316 µM, first compound 0.00949 µM
[8] = second compound 0.316 µM, first compound 0.03 µM
[9] = second compound 0.316 µM, first compound 0.0949 µM
[10] = second compound 0.316 µM, first compound 0.3 µM
[11] = second compound 0.316 µM, first compound 0.949 µM
[12] = second compound 0.316 µM, first compound 3 µM
[13] = second compound 1 µM, first compound 0.00949 µM
[14] = second compound 1 µM, first compound 0.03 µM
[15] = second compound 1 µM, first compound 0.0949 µM
[16] = second compound 1 µM, first compound 0.3 µM
[17] = second compound 1 µM, first compound 0.949 µM
[18] = second compound 1 µM, first compound 3 µM
[19] = second compound 3.16 µM, first compound 0.00949 µM
[20] = second compound 3.16 µM, first compound 0.03 µM
[21] = second compound 3.16 µM, first compound 0.0949 µM
[22] = second compound 3.16 µM, first compound 0.3 µM
[23] = second compound 3.16 µM, first compound 0.949 µM
[24] = second compound 3.16 µM, first compound 3 µM
[25] = second compound 10 µM, first compound 0.00949 µM
[26] = second compound 10 µM, first compound 0.03 µM
[27] = second compound 10 µM, first compound 0.0949 µM
[28] = second compound 10 µM, first compound 0.3 µM
[29] = second compound 10 µM, first compound 0.949 µM
[30] = second compound 10 µM, first compound 3 µM

**Q.** `Nc1ccccc1NC(=O)c1ccc(CNC(=O)OCc2cccnc2)cc1` + NC1CC1c1ccc(-c2cccc(O)c2)cc1 was tested. Which IC50 (second compound 0.1 µM) did it give?
**A.** 57.8 nM

**Q.** What about the IC50 (second compound 0.316 µM) of the same compound?
**A.** 63 nM

**Q.** And the IC50 (second compound 1 µM)?
**A.** 63.6 nM

**Q.** And the IC50 (second compound 3.16 µM)?
**A.** 67.7 nM

**Q.** And the IC50 (second compound 10 µM)?
**A.** 104 nM

**Q.** What about the viability, T/C [1] of the same compound?
**A.** 77.6%

**Q.** What about the viability, T/C [2] of the same compound?
**A.** 66.3%

**Q.** What about the viability, T/C [3] of the same compound?
**A.** 37.7%

**Q.** What about the viability, T/C [4] of the same compound?
**A.** 5.54%

**Q.** What about the viability, T/C [5] of the same compound?
**A.** 0.32%

**Q.** What about the viability, T/C [6] of the same compound?
**A.** 0.4%

**Q.** What about the viability, T/C [7] of the same compound?
**A.** 78.8%

**Q.** What about the viability, T/C [8] of the same compound?
**A.** 65.5%

**Q.** And the viability, T/C [9]?
**A.** 42%

**Q.** What about the viability, T/C [10] of the same compound?
**A.** 7.37%

**Q.** What about the viability, T/C [11] of the same compound?
**A.** 0.32%

**Q.** And the viability, T/C [12]?
**A.** 0.32%

**Q.** What about the viability, T/C [13] of the same compound?
**A.** 80.2%

**Q.** What about the viability, T/C [14] of the same compound?
**A.** 63.9%

**Q.** And the viability, T/C [15]?
**A.** 43.9%

**Q.** What about the viability, T/C [16] of the same compound?
**A.** 8.12%

**Q.** And the viability, T/C [17]?
**A.** 1.9%

**Q.** And the viability, T/C [18]?
**A.** 0.59%

**Q.** What about the viability, T/C [19] of the same compound?
**A.** 79.5%

**Q.** What about the viability, T/C [20] of the same compound?
**A.** 70.1%

**Q.** And the viability, T/C [21]?
**A.** 41.9%

**Q.** What about the viability, T/C [22] of the same compound?
**A.** 7.06%

**Q.** What about the viability, T/C [23] of the same compound?
**A.** 0.28%

**Q.** And the viability, T/C [24]?
**A.** 0.39%

**Q.** And the viability, T/C [25]?
**A.** 82.2%

**Q.** What about the viability, T/C [26] of the same compound?
**A.** 70.6%

**Q.** And the viability, T/C [27]?
**A.** 55%

**Q.** What about the viability, T/C [28] of the same compound?
**A.** 10.2%

**Q.** What about the viability, T/C [29] of the same compound?
**A.** 0.92%

**Q.** What about the viability, T/C [30] of the same compound?
**A.** 0.55%

**Q.** With `O=C(C=Cc1cccc(S(=O)(=O)Nc2ccccc2)c1)NO` + NC1CC1c1ccc(-c2cccc(O)c2)cc1 as the compound, how does the IC50 (second compound 0.1 µM) read?
**A.** 138 nM

**Q.** What about the IC50 (second compound 0.316 µM) of the same compound?
**A.** 129 nM

**Q.** And the IC50 (second compound 1 µM)?
**A.** 149 nM

**Q.** And the IC50 (second compound 3.16 µM)?
**A.** 137 nM

**Q.** And the IC50 (second compound 10 µM)?
**A.** 152 nM

**Q.** What about the viability, T/C [1] of the same compound?
**A.** 106%

**Q.** What about the viability, T/C [2] of the same compound?
**A.** 91.2%

**Q.** And the viability, T/C [3]?
**A.** 70.3%

**Q.** What about the viability, T/C [4] of the same compound?
**A.** 9.6%

**Q.** And the viability, T/C [5]?
**A.** 0.22%

**Q.** What about the viability, T/C [6] of the same compound?
**A.** 0.32%

**Q.** And the viability, T/C [7]?
**A.** 96.7%

**Q.** And the viability, T/C [8]?
**A.** 92.6%

**Q.** And the viability, T/C [9]?
**A.** 64.3%

**Q.** And the viability, T/C [10]?
**A.** 10.6%

**Q.** And the viability, T/C [11]?
**A.** 0.24%

**Q.** What about the viability, T/C [12] of the same compound?
**A.** 0.42%

**Q.** What about the viability, T/C [13] of the same compound?
**A.** 112%

**Q.** And the viability, T/C [14]?
**A.** 89.5%

**Q.** What about the viability, T/C [15] of the same compound?
**A.** 75.1%

**Q.** What about the viability, T/C [16] of the same compound?
**A.** 13.9%

**Q.** What about the viability, T/C [17] of the same compound?
**A.** 1.06%

**Q.** And the viability, T/C [18]?
**A.** 0.34%

**Q.** And the viability, T/C [19]?
**A.** 101%

**Q.** And the viability, T/C [20]?
**A.** 101%

**Q.** And the viability, T/C [21]?
**A.** 68.6%

**Q.** And the viability, T/C [22]?
**A.** 10%

**Q.** What about the viability, T/C [23] of the same compound?
**A.** 1.82%

**Q.** And the viability, T/C [24]?
**A.** 0.33%

**Q.** And the viability, T/C [25]?
**A.** 115%

**Q.** And the viability, T/C [26]?
**A.** 92.6%

**Q.** What about the viability, T/C [27] of the same compound?
**A.** 76.3%

**Q.** And the viability, T/C [28]?
**A.** 14.5%

**Q.** What about the viability, T/C [29] of the same compound?
**A.** 0.36%

**Q.** What about the viability, T/C [30] of the same compound?
**A.** 0.36%

**Q.** For `O=C(c1cc(Cc2n[nH]c(=O)c3ccccc23)ccc1F)N1CCN(C(=O)C2CC2)CC1` + NC1CC1c1ccc(-c2cccc(O)c2)cc1, which IC50 (second compound 0.1 µM) is on record?
**A.** > 10000 nM

**Q.** What about the IC50 (second compound 0.316 µM) of the same compound?
**A.** > 10000 nM

**Q.** What about the IC50 (second compound 1 µM) of the same compound?
**A.** > 10000 nM

**Q.** What about the IC50 (second compound 3.16 µM) of the same compound?
**A.** > 10000 nM

**Q.** What about the IC50 (second compound 10 µM) of the same compound?
**A.** > 10000 nM

**Q.** What about the viability, T/C (second compound 0.1 µM, first compound 0.0316 µM) of the same compound?
**A.** 85.5%

**Q.** What about the viability, T/C (second compound 0.1 µM, first compound 0.1 µM) of the same compound?
**A.** 85.3%

**Q.** And the viability, T/C (second compound 0.1 µM, first compound 0.316 µM)?
**A.** 89.4%

**Q.** What about the viability, T/C (second compound 0.1 µM, first compound 1 µM) of the same compound?
**A.** 90.4%

**Q.** And the viability, T/C (second compound 0.1 µM, first compound 3.16 µM)?
**A.** 87.2%

**Q.** What about the viability, T/C (second compound 0.1 µM, first compound 10 µM) of the same compound?
**A.** 92.3%

**Q.** And the viability, T/C (second compound 0.316 µM, first compound 0.0316 µM)?
**A.** 98%

**Q.** And the viability, T/C (second compound 0.316 µM, first compound 0.1 µM)?
**A.** 90.3%

**Q.** What about the viability, T/C (second compound 0.316 µM, first compound 0.316 µM) of the same compound?
**A.** 86.5%

**Q.** And the viability, T/C (second compound 0.316 µM, first compound 1 µM)?
**A.** 86.2%

**Q.** And the viability, T/C (second compound 0.316 µM, first compound 3.16 µM)?
**A.** 91.7%

**Q.** And the viability, T/C (second compound 0.316 µM, first compound 10 µM)?
**A.** 83%

**Q.** What about the viability, T/C (second compound 1 µM, first compound 0.0316 µM) of the same compound?
**A.** 90.8%

**Q.** What about the viability, T/C (second compound 1 µM, first compound 0.1 µM) of the same compound?
**A.** 88.1%

**Q.** What about the viability, T/C (second compound 1 µM, first compound 0.316 µM) of the same compound?
**A.** 95.8%

**Q.** What about the viability, T/C (second compound 1 µM, first compound 1 µM) of the same compound?
**A.** 92.1%

**Q.** What about the viability, T/C (second compound 1 µM, first compound 3.16 µM) of the same compound?
**A.** 87.2%

**Q.** What about the viability, T/C (second compound 1 µM, first compound 10 µM) of the same compound?
**A.** 78%

**Q.** And the viability, T/C (second compound 3.16 µM, first compound 0.0316 µM)?
**A.** 90.4%

**Q.** And the viability, T/C (second compound 3.16 µM, first compound 0.1 µM)?
**A.** 99.3%

**Q.** What about the viability, T/C (second compound 3.16 µM, first compound 0.316 µM) of the same compound?
**A.** 99.3%

**Q.** And the viability, T/C (second compound 3.16 µM, first compound 1 µM)?
**A.** 92.3%

**Q.** And the viability, T/C (second compound 3.16 µM, first compound 3.16 µM)?
**A.** 88.9%

**Q.** What about the viability, T/C (second compound 3.16 µM, first compound 10 µM) of the same compound?
**A.** 76.7%

**Q.** And the viability, T/C (second compound 10 µM, first compound 0.0316 µM)?
**A.** 84.9%

**Q.** What about the viability, T/C (second compound 10 µM, first compound 0.1 µM) of the same compound?
**A.** 93.9%

**Q.** What about the viability, T/C (second compound 10 µM, first compound 0.316 µM) of the same compound?
**A.** 88.9%

**Q.** And the viability, T/C (second compound 10 µM, first compound 1 µM)?
**A.** 83%

**Q.** What about the viability, T/C (second compound 10 µM, first compound 3.16 µM) of the same compound?
**A.** 83%

**Q.** And the viability, T/C (second compound 10 µM, first compound 10 µM)?
**A.** 80.9%
